From US11400093B2, “Deuterated elagolix-like compositions and methods” (Lupin Inc., priority 2019, dated 2022)

Legend:
Type in all cases: in vitro ADME
cDNA-expressed CYP2D6 = target: T1, cDNA-expressed CYP2D6 (Homo sapiens, UniProt P10635); assay: Metabolism by cDNA-expressed CYP2D6 (parent remaining); conditions: 1 μM, 120 min
T1 construct: purchased
Method: (§1) A study was conducted to determine the effect of deuteration on the metabolism of elagolix by human cytochrome P450 (CYP) enzymes. The metabolism of 4-[[(1R)-2-[5-(2-fluoro-3-methoxyphenyl)-3-[[2-fluoro-6(trifluoromethyl)phenyl]methyl]-3,6-dihydro-4-methyl-2,6-dioxo-1(2H)-pyrimidinyl]-1-phenylethyl]amino] butanoic acid-d3 (elagolix-d3) sodium salt and 4-[[(1R)-2-[5-(2-fluoro-3-methoxyphenyl)-3-[[2-fluoro-6(trifluoromethyl)phenyl] methyl]-3,6-dihydro-4-methyl-2,6-dioxo-1(2H)-pyrimidinyl]-1-phenylethyl]amino] butanoic acid-d6 (elagolix-d6) sodium salt by cDNA-expressed CYP enzymes were investigated in vitro and compared to results obtained with undeuterated elagolix to determine which human cytochrome P450 (CYP) enzymes are involved in the metabolism of elagolix, elagolix-d3, and elagolix-d6.
(§2) Commercially available cDNA-expressed human CYP enzymes were used for this study. […]
(§3) LC-MS/MS methods for elagolix, elagolix-d3, and elagolix-d6 were developed. The fraction of parent compound remaining compared to 0 min was determined based on peak area ratio (analyte/internal standard). […]

cDNA-expressed CYP3A5 = target: T2, cDNA-expressed CYP3A5 (Homo sapiens, UniProt P20815); assay: Metabolism by cDNA-expressed CYP3A5 (parent remaining); conditions: 1 μM, 120 min
T2 construct: purchased
T2 sequence (P20815 whole entry): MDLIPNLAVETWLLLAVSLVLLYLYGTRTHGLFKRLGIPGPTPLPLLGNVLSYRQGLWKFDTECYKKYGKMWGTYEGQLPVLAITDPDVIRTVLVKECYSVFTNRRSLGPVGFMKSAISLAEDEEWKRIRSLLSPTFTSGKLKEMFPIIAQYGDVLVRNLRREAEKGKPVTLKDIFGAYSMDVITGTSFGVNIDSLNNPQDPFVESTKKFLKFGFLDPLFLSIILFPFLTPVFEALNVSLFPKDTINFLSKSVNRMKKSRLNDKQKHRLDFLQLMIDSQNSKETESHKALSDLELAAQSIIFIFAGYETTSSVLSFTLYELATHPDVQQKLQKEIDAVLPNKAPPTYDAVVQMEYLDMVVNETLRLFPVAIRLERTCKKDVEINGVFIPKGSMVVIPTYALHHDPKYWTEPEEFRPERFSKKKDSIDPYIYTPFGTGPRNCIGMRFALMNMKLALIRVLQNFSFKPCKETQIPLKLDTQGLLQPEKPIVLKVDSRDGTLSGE
Method: as §1, §2, §3

[1] = test system: cDNA-expressed CYP1A2, CYP2A6, CYP2B6, CYP2C8, CYP2C9, CYP2C19, CYP2D6, CYP2E1, CYP3A4, and CYP3A5; assay: Metabolism by cDNA-expressed human CYP enzymes, all isoforms (parent remaining); conditions: for average percent of parent compound remaining for all isoforms and concentrations: 1.0 μM and 10 μM, 120 minutes incubation, all ten CYP isoforms
Method: as §1
Commercially available cDNA-expressed human CYP enzymes were used for this study.
A 600 μL reaction mixture containing enzyme protein, NADPH generating system (1.3 mM NADP+, 3.3 mM glucose-6-phosphate, 0.4 U/mL glucose-6-phosphate dehydrogenase, 3.3 mM magnesium chloride) and each test article (elagolix, elagolix-d3, elagolix-d6) at two concentrations (e.g. 1 μM and 10 μM) in 100 mM potassium phosphate (pH 7.4) was incubated at 37° C. At two time points (0 and 120 min), the reaction was stopped by removing an aliquot and combining it with an equal volume of cold acetonitrile containing an internal standard (deuterated elagolix was used as the internal standard for elagolix, and elagolix was used as the internal standard for elagolix-d3 and -d6) and placed on ice. Samples were centrifuged to pellet the protein and the supernatant was frozen at −20° C. for subsequent analysis by LC-MS/MS.
Protein concentrations were constant for all isoforms within each experiment and standardized by the addition of control microsomes. Incubations were performed in duplicate. Incubations with vector control enzyme preparations and without enzyme source were included as negative controls.
All other positive controls were assayed at one concentration in duplicate in accordance with the methods described above. The percent of parent remaining at the end of the incubation was compared to 0 min based on the peak area ratio of the substrate and internal standard.
LC-MS/MS methods for elagolix, elagolix-d3, and elagolix-d6 were developed. The fraction of parent compound remaining compared to 0 min was determined based on peak area ratio (analyte/internal standard).
Elagolix, elagolix-d3, and elagolix-d6 at 1.0 μM and 10 μM were each incubated in the presence of cDNA-expressed CYP1A2, CYP2A6, CYP2B6, CYP2C8, CYP2C9, CYP2C19, CYP2D6, CYP2E1, CYP3A4, and CYP3A5 for 120 minutes. The average percent of parent compound remaining for all isoforms and concentrations was >11% for elagolix, >60% for elagolix-d3, and >26% for elagolix-d6.

T1 sequence (P10635 whole entry): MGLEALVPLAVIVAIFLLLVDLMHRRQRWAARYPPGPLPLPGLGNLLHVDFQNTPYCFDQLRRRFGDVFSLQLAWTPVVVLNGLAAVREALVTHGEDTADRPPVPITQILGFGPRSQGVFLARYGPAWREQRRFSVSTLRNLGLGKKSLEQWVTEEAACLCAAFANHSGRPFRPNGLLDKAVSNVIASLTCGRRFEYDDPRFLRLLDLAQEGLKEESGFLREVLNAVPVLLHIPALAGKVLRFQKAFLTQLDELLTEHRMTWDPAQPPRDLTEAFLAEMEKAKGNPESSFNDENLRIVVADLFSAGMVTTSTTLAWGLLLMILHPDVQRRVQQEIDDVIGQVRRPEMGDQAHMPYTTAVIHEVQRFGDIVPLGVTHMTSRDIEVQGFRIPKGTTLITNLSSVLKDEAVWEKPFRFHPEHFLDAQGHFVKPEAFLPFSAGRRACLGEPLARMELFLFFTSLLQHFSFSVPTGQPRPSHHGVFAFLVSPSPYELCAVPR

| SMILES | percent parent remaining, cDNA-expressed CYP2D6 (cDNA-expressed CYP2D6) | percent parent remaining, cDNA-expressed CYP3A5 (cDNA-expressed CYP3A5) | average percent of parent compound remaining for all isoforms and concentrations [1] | depletion by cDNA-expressed CYP2D6 (cDNA-expressed CYP2D6) | average amount of parent compound in a CYP enzyme assay after 120 minutes relative to that of elagolix [1] |
| --- | --- | --- | --- | --- | --- |
| COc1cccc(-c2c(C)n(Cc3c(F)cccc3C(F)(F)F)c(=O)n(C[C@H](NCCCC(=O)O)c3ccccc3)c2=O)c1F [elagolix, 4-({(1R)-2-[5-(2-fluoro-3methoxyphenyl)-3-{[2-fluoro-6-(trifluoromethyl)phenyl]methyl}-4-methyl-2,6-dioxo-3,6dihydropyrimidin-1(2H)-yl]-1-phenylethyl}amino)butanoate] | 62% | 11% | > 11% |  |  |
| [2H]C([2H])([2H])Oc1cccc(-c2c(C)n(Cc3c(F)cccc3C(F)(F)F)c(=O)n(C[C@H](NCCCC(=O)O)c3ccccc3)c2=O)c1F [elagolix-d3, 4-[[(1R)-2-[5-(2-fluoro-3-methoxyphenyl)-3-[[2-fluoro-6(trifluoromethyl)phenyl]methyl]-3,6-dihydro-4-methyl-2,6-dioxo-1(2H)-pyrimidinyl]-1-phenylethyl]amino] butanoic acid-d3] |  | 60% | > 60% | did not demonstrate any depletion | more than 400% |
| [2H]C([2H])(N[C@@H](Cn1c(=O)c(-c2cccc(OC)c2F)c(C)n(Cc2c(F)cccc2C(F)(F)F)c1=O)c1ccccc1)C([2H])([2H])C([2H])([2H])C(=O)O [elagolix-d6, 4-[[(1R)-2-[5-(2-fluoro-3-methoxyphenyl)-3-[[2-fluoro-6(trifluoromethyl)phenyl]methyl]-3,6-dihydro-4-methyl-2,6-dioxo-1(2H)-pyrimidinyl]-1-phenylethyl]amino] butanoic acid-d6] |  |  | > 26% |  | 136% |
